Tests used:
[1] = system: P. falciparum intraerythrocytic parasites; experiment: Parasite intraerythrocytic growth (Giemsa smears); format: cell-based, Plasmodium falciparum; settings: 1.4 μM
Protocol: A culture of erythrocytes freshly invaded by P. falciparum parasites was set up as previously described ([17]). Parasites were exposed to 1.4 μM EHop-016, and an untreated control was set up. Blood smears were taken at 20, 27, and 39 hpi, corresponding to late ring, trophozoite, and schizont stages, and then Giemsa stained and counted by optical microscopy in order to assess parasitemia. Pictures of the blood smears were taken with a Leica ICC50W camera. These experiments were performed in three biological replicates.

Rac1 [2] = target: Rac1 (Homo sapiens, UniProt P63000); experiment: Immunofluorescence assay with anti-Rac1/GTP on parasitophorous vacuole; format: cell-based; set-up: endogenous in cells; host or cells: erythrocytes from whole blood of 7 donors; settings: 1.4 μM, 20 h
Protocol: We thus decided to investigate the Rac1 activation state in infected erythrocytes treated with EHop-016 and in the untreated control. To do this, we applied a methodology that allows us to specifically measure Rac1 activation levels on the parasitophorous vacuole. Freshly invaded erythrocytes were thus exposed to 1.4 μM EHop-016 treatment for 20 h and then smeared and analyzed by an immunofluorescence assay (IFA) with an antibody that specifically recognizes Rac1 in its active form (anti-Rac1/GTP). The resulting fluorescence signal was measured both in the EHop-016-treated sample and in the untreated control.
Cytotoxicity was evaluated on Human Microvascular Endothelial Cells (HMEC-1) maintained in MCDB-131 medium supplemented with 10% foetal calf serum (Euroclone), 20mM HEPES and 2 mM L-glutamine. […]
Immuno-fluorescence assay
Synchronous mature schizonts were purified by 60% Percoll gradient and allowed to invade fresh human RBCs for two hours. […] Negative controls without primary antibodies have been performed, resulting in complete absence of fluorescence s ignals. Anti-Rac1/GTP fluorescence signal was measured by using the software ImageJ (the parasitophorous vacuole area was delimited based on the anti-Exp1 signal). At least 40 cells were analyzed in each sample.

[3] = set-up: method as in PMID 25389450, PMID 25594952; settings: mice, orally, 25 mg/kg three times a week for 55 days; cited from earlier work
[4] = system: HMEC-1 human microvascular endothelial cells; experiment: Cell cytotoxicity MTT assay; format: cell-based
Protocol: Cytotoxicity was evaluated on human microvascular endothelial cells (HMEC-1) as detailed in the supplemental material. […] Plates were then read on a microplate reader (Synergy 4; BioTek) at a wavelength of 550 nm (reference, 650 nm). […] All tests were performed in duplicate at least three times.
The selectivity index (SI) is the ratio between the cytotoxic IC50 value against HMEC-1 cells and the parasitic IC50 value against the D10 strain and indicates the compound selectivity for the parasite.
Cytotoxicity was evaluated on Human Microvascular Endothelial Cells (HMEC-1) maintained
and 2 mM L-glutamine. Cells were seeded in 96 well flat bottom tissue culture clusters (1.5x104
cells/well), let adhere overnight and treated with serial dilutions of test compounds . […]

Rac1 [5] = system: Rac1; set-up: method as in PMID 22383527; settings: Rac1 activity in MDA-MB-435 melanoma cells; cited from earlier work
3D7 mature gametocytes = experiment: Gametocyte viability luminescence assay, mature gametocytes; format: cell-based, Plasmodium falciparum; settings: Plasmodium falciparum, 3D7; stage V gametocytes, 72 h, luminescence; read-out: Mean IC50 ± SD, 3D7 mature gametocytes
Protocol: (§1) Chloroquine (CQ)-sensitive (D10, wild-type 3D7, or transgenic 3D7elo1-pfs16-CBG99) and CQ-resistant (W2) strains of P. falciparum were cultured as described previously ([58]), with slight modifications, as detailed in the supplemental material.
(§2) Asexual parasite growth was determined spectrophotometrically (optical density at 650 nm [OD650]) by measuring the activity of parasite lactate dehydrogenase (pLDH), according to a modified version of the method of Makler et al. ([59]). Gametocyte viability was measured by a luminescence method described previously ([60]). Details for the two methods are reported in the supplemental material. From either the OD or ALU (arbitrary luminescence units), the percentages of viability were calculated according to the formula 100 × (treated sample signal − blank signal)/(untreated control signal − blank signal). The blank for the pLDH assay was uninfected RBCs at the same hematocrit as that of parasitized RBCs, and the blank for the luminescence assay was parasites treated with a high dose of methylene blue. […]
(§3) strain (wild type or transgenic 3D7elo1-pfs16-CBG99 strain) was cultured in similar conditions, except for 10% naturally clotted Human O+ serum instead of AlbuMaxII and human type O-positive instead of A-positive RBCs. […]
(§4) in a standard gas mixture consisting of 1% O2, 5% CO2, 94% N2. Immature (stage II-III) and mature (stage V) gametocytes were obtained as described1. Briefly, cultures were diluted to 0.5% parasitemia at 5% HCT, and the medium was changed daily until parasites were stressed by nutrient deprivation. N-acetylglucosamine (NAG) (Sigma-Aldrich) 50 mM was then added to clear residual asexual parasites: Stage II and III gametocytes were obtained 4 days after NAG addition to the culture, while stage IV and V gametocytes were used 11 to 13 days from NAG addition. Gametocyte stages were routinely checked on Giemsa-stained smears. […]
(§5) Drug treated gametocyte cultures were transferred to 96-well black microplates and D-luciferin (1 mM in citrate buffer 0.1 M, pH 5.5) was added at a 1:1 volume ratio. Luminescence measurements were performed after 10 min with 500 ms integration time. Gametocytes treated

3D7 immature gametocytes = experiment: Gametocyte viability luminescence assay, immature gametocytes; format: cell-based, Plasmodium falciparum; settings: Plasmodium falciparum, 3D7, stage II-III gametocytes, 72 h, read-out: Mean IC50 ± SD, 3D7 immature gametocytes
Protocol: as §1, §2, §3, §4, §5

Q: For `CCn1c2ccccc2c2cc(Nc3ccnc(NCCCN4CCOCC4)n3)ccc21` [EHop-016], which “parasitemia compared to untreated control” value ([1]; 20, 27 and 39 hpi) is on record?
A: Its value is “significant, time-dependent reduction in parasitemia”.

Q: And the parasite developmental process ([1]; up to 39 hpi)?
A: The parasite developmental process was “complete block of the developmental process”.

Q: What about the “anti-Rac1/GTP fluorescence intensity of parasitophorous vacuoles vs untreated control” value (Rac1 [2]) of the same compound?
A: The value was “significantly lower”.

Q: And the “changes in weight or behavior” value [3]?
A: The value was “did not cause any significant changes in weight or behavior”.

Q: What about the IC50 ([4]; Homo sapiens, HMEC-1, MTT, 72 h, read-out: Mean HMEC-1 IC50 ± SD) of the same compound?
A: Its IC50 is 5.22 ± 1.07 µM.

Q: What about the “SI (selectivity index)” value ([4]; ratio IC50 against HMEC-1 cells / IC50 against D10 asexual parasites) of the same compound?
A: The value was 37.8.

Q: And the IC50 (Rac1 [5])?
A: The IC50 was 1.1 µM.

Q: What about the IC50 (3D7 mature gametocytes) of the same compound?
A: Its IC50 is 4.65 ± 0.52 µM.

Q: And the IC50 (3D7 immature gametocytes)?
A: Its IC50 is 0.74 ± 0.2 µM.

From paper PMC8765435, “In Vitro Antimalarial Activity of Inhibitors of the Human GTPase Rac1” (Antimicrobial Agents and Chemotherapy, 2022)
